Legend:
[1] = target: GABA-A receptor; anion channel; assay: In vitro inhibition of [35S]t-butyl-bicyclophosphorothionate (TBPS) binding to Gamma-aminobutyric acid A (GABA-A) receptor; type: protein-complex assay, Rattus norvegicus
[2] = target: GABA-A receptor; anion channel; assay: Inhibition of [3H]flunitrazepam binding to GABA-A receptor; type: protein-complex assay, Rattus norvegicus
Rattus norvegicus [3] = assay: Percent change in punished responding phase (FR) after administration of 20 mg/Kg oral dose in rat Geller-Seifter test; type: functional
Rattus norvegicus [4] = assay: Percent change in variable interval unpunished responding phase (VI) after administration of 20 mg/Kg oral dose in rat Geller-Seifter test.; type: functional
Rattus norvegicus [5] = species on record: Rattus norvegicus; assay: Number of animals responding to the above phases out of 16 tested, expressed as Nr/N; type: functional
Rattus norvegicus [6] = species on record: Rattus norvegicus; assay: Number of animals responding to the above phases out of 6 tested, expressed as Nr/N; type: functional
Rattus norvegicus [7] = assay: Percent change in punished responding phase (FR) after administration of 20 mg/kg oral dose in rat Geller-Seifter test.; type: functional
Rattus norvegicus [8] = assay: Percent change in variable interval unpunished responding phase (VI) after administration of 20 mg/kg oral dose in rat Geller-Seifter test.; type: functional
Rattus norvegicus [9] = assay: Percent change in punished responding phase (FR) after administration of 10 mg/Kg oral dose in rat Geller-Seifter test; type: functional
Rattus norvegicus [10] = assay: Percent change in variable interval unpunished responding phase (VI) after administration of 10 mg/Kg oral dose in rat Geller-Seifter test; type: functional
Rattus norvegicus [11] = species on record: Rattus norvegicus; assay: Number of animals responding to the above phases out of 8 tested, expressed as Nr/N; type: functional
Rattus norvegicus [12] = assay: Percent change in punished responding phase (FR) after administration of 20 mg/kg oral dose in rat Geller-Seifter test; type: functional
Rattus norvegicus [13] = assay: Percent change in variable interval unpunished responding phase (VI) after administration of 40 mg/Kg intraperitoneally in rat Geller-Seifter test.; type: functional
Rattus norvegicus [14] = assay: Percent change in punished responding phase (FR) after administration of 40 mg/Kg intraperitoneally in rat Geller-Seifter test; type: functional

| Compound | IC50 [1] | IC50 [2] | Nr/N (Rattus norvegicus [6]) | further results |
| --- | --- | --- | --- | --- |
| Cn1c2ccccc2c2c(N)c3c(nc21)CCCC3 | > 100 µM |  |  |  |
| Nc1c2c(nc3sc4c(c13)CCCCC4)CCCC2=O | 0.29 µM | > 100 µM |  |  |
| CCOC(=O)c1c(C)nc2c(c1N)c1ccccc1n2C |  | > 100 µM |  | Change (Rattus norvegicus [3]): 22%; Change (Rattus norvegicus [4]): -3%; Nr/N (Rattus norvegicus [5]): 12 |
| CC1CCc2nc3sc4ccccc4c3c(N)c2C1=O (stereo unspecified) | 0.46 µM |  | 5 | Change (Rattus norvegicus [3]): 30%; Change (Rattus norvegicus [4]): 0% |
| CC1CCc2nc3sc4c(c3c(N)c2C1=O)CCCC4 (stereo unspecified) | 1.6 µM |  |  |  |
| CC1CCc2nc3sc4c(c3c(N)c2C1=O)CCCCC4 (stereo unspecified) | 0.37 µM |  |  |  |
| Cn1c2ccccc2c2cc3c(nc21)CCCC3=O | 10 µM | > 100 µM | 3 | Change (Rattus norvegicus [7]): 4%; Change (Rattus norvegicus [8]): 2% |
| CC1CCc2nc3c(c(N)c2C1=O)c1ccccc1n3C (stereo unspecified) |  | > 100 µM | 5 | Change (Rattus norvegicus [3]): 52%; Change (Rattus norvegicus [4]): 0% |
| Cn1c2c(c3c(N)c4c(nc31)CCCC4=O)CCCC2 | 6.3 µM |  |  |  |
| COC(=O)c1c(C)nc2c(c(C)c(C)n2C)c1N | 12 µM | > 100 µM |  |  |
| CN1C(=O)CN=C(c2ccccc2)c2cc(Cl)ccc21 [DIAZEPAM] |  |  |  | Change (Rattus norvegicus [9]): 114%; Change (Rattus norvegicus [10]): 10%; Nr/N (Rattus norvegicus [11]): 7 |
| CC1CCc2nc3c(c(N)c2C1=O)c1c(n3C)CCCC1 (stereo unspecified) | 2.7 µM | 18 µM | 5 | Change (Rattus norvegicus [12]): 28%; Change (Rattus norvegicus [8]): 1% |
| CC1CCc2nc3sc4c(c3c(N)c2C1=O)CCC4 (stereo unspecified) | 1.7 µM |  | 5 | Change (Rattus norvegicus [3]): 26%; Change (Rattus norvegicus [4]): 0% |
| COC(=O)c1c(C)nc2sc3c(c2c1N)CCCC3 | 7.5 µM |  |  | Change (Rattus norvegicus [13]): 0%; Nr/N (Rattus norvegicus [11]): 8; Change (Rattus norvegicus [14]): 42% |
